Reference: publication PMC5883364 (Malaria Journal, 2018)
“Also recorded” adds a separate entry of the source. Like-named read-outs stand apart in the source and are kept apart here.

Key:
[1] = system: HepG2-A16 (human hepatoma) cells; settings: for Selectivity index LD50 (HepG2)/IC50 (3D7): HepG2 vs 3D7; for Selectivity index LD50 (HepG2)/IC50 (Dd2): HepG2 vs Dd2; for Selectivity index LD50 (HepG2)/IC50 (IPC4912): HepG2 vs IPC4912; for Selectivity index LD50 (HepG2)/IC50 (IPC5202): HepG2 vs IPC5202; for LD50 HepG2: human, 48 h
Procedure: (§1) Cytotoxicity was assessed on the mammalian cell lines HepG2-A16 (human hepatoma) and V79 (Chinese hamster lung), using a MTT based assay, as previously described. […] V79 and HepG2 cell lines were incubated for 24 and 48 h, respectively (media changed at 24 h intervals). Absorbance was read at 570 nm on a multi-mode microplate reader (Triad, Dynex Technologies), to produce a log dose-dependence curve. The LD50 value for each compound was estimated by non-linear interpolation of the dose-dependence curve (GraphPad Software).

[2] = system: V79 (Chinese hamster lung) cells; settings: for LD50 V79: Chinese hamster, 24 h; for Selectivity index LD50 (V79)/IC50 (3D7): V79 vs 3D7; for Selectivity index LD50 (V79)/IC50 (Dd2): V79 vs Dd2; for Selectivity index LD50 (V79)/IC50 (IPC4912): V79 vs IPC4912; for Selectivity index LD50 (V79)/IC50 (IPC5202): V79 vs IPC5202
Procedure: as §1

[3] = system: P. falciparum IPC5202 (artemisinin-resistant, K13 R539T); assay: SYBR Green I assay, IC50, strain IPC5202; format: cell-based, Plasmodium falciparum; settings: for IC50: Plasmodium falciparum, read-out: P. falciparum IC50 ± SD, IPC5202, strain IPC5202; for Resistance Index RIb = IC50 (IPC5202)/IC50 (3D7): IPC5202 vs 3D7
Procedure: (§2) Staging and parasitaemia were determined by light microscopy of Giemsa-stained thin blood smears. Anti-malarial activity was determined using the SYBR Green I assay, as previously described.

[4] = system: P. falciparum Dd2 (chloroquine-resistant, mefloquine-resistant); assay: SYBR Green I assay, IC50, strain Dd2; format: cell-based, Plasmodium falciparum; settings: Dd2 vs 3D7
Procedure: as §2

[5] = system: P. falciparum IPC4912 (artemisinin-resistant, K13 I543T); assay: SYBR Green I assay, IC50, strain IPC4912; format: cell-based, Plasmodium falciparum; settings: for IC50: Plasmodium falciparum, read-out: P. falciparum IC50 ± SD, IPC4912; for Resistance Index RIc = IC50 (IPC4912)/IC50 (3D7): IPC4912 vs 3D7
Procedure: Staging and parasitaemia were determined by light microscopy of Giemsa-stained thin blood smears. Anti-malarial activity was determined using the SYBR Green I assay, as previously described. Briefly, early ring stage parasites (> 80% of rings) were challenged with a 1:3 serial dilution of each compound, in concentrations ranging from 10,000–0.169 nM. Fluorescence intensity was measured with a multi-mode microplate reader (Triad, Dynex Technologies), with excitation and emission wavelengths of 485 and 535 nm, respectively, and analysed by nonlinear regression using GraphPad Prism to determine IC50 values.

Plasmodium berghei NK65 = assay: Peters' 4-day suppressive test in Swiss albino mice; format: in vivo; settings: for in vivo outcome against P. berghei in words / inhibition in vivo at 50 mg/kg/day / Mean parasitaemia ± SD, Day 5 / Mean parasitaemia ± SD, Day 7 / Mean parasitaemia ± SD, Day 10: 50 mg/kg/day oral for 4 days; for in vivo outcome against P. berghei in words: followed to day 10; for inhibition in vivo at 50 mg/kg/day: Plasmodium berghei; for inhibition in vivo at 50 mg/kg/day / Mean parasitaemia ± SD, Day 5 / Mean parasitaemia ± SD, Day 7 / Mean parasitaemia ± SD, Day 10: mice
Procedure: In vivo tests were performed following the Guidelines for Ethical Conduct in The Care and Use of Animals of the Federal University of Rio Grande do Norte—Brazil (CEUA/UFRN/46/2013). Evaluation of anti-malarial activity in vivo was carried out using the Peters’ 4-day suppressive test, with modifications, as previously described. Swiss albino mice were infected with Plasmodium berghei NK65 and randomly allocated to groups of five animals. Animals were treated with 50 mg/kg/day of each of the tested compounds (dissolved in PBS containing 1% DMSO), administrated orally, for four consecutive days. The control group was treated with a solution of PBS/1% DMSO. On days 5 (D5), 7 (D7) and 10 (D10) after parasite inoculation, tail blood smears were Giemsa-stained and examined microscopically to estimate parasitaemia. Acute toxicity testing was carried out to determine adverse effects due to compounds (including weight loss, hair appearance, skin wounds and behavioural changes), and recorded daily.

[6] = 120 h, day 5, vs control group, read-out: % inhibition of parasite growth, Day 5 (converted)
[7] = 168 h, day 7, vs control group, read-out: % inhibition of parasite growth, Day 7 (converted)
[8] = 240 h, day 10, vs control group, read-out: % inhibition of parasite growth, Day 10 (converted)

Row | SMILES | Selectivity index LD50 (HepG2)/IC50 (3D7) [1] | Selectivity index LD50 (HepG2)/IC50 (Dd2) [1] | Selectivity index LD50 (HepG2)/IC50 (IPC4912) [1] | Selectivity index LD50 (HepG2)/IC50 (IPC5202) [1] | LD50 HepG2 [1] [mM] | LD50 V79 [2] [mM] | Selectivity index LD50 (V79)/IC50 (3D7) [2] | Selectivity index LD50 (V79)/IC50 (Dd2) [2] | Selectivity index LD50 (V79)/IC50 (IPC4912) [2] | Selectivity index LD50 (V79)/IC50 (IPC5202) [2] | IC50 [3] [nM] | IC50 [5] [nM] | Resistance Index RIb = IC50 (IPC5202)/IC50 (3D7) [3] | inhibition in vivo at 50 mg/kg/day (Plasmodium berghei NK65; [6]) [%] | inhibition in vivo at 50 mg/kg/day (Plasmodium berghei NK65; [7]) [%] | inhibition in vivo at 50 mg/kg/day (Plasmodium berghei NK65; [8]) [%] | Mean parasitaemia ± SD, Day 5 (Plasmodium berghei NK65; day 5) [%] | Mean parasitaemia ± SD, Day 7 (Plasmodium berghei NK65; day 7) [%] | Mean parasitaemia ± SD, Day 10 (Plasmodium berghei NK65) [%] | Resistance Index RIc = IC50 (IPC4912)/IC50 (3D7) [5] | other results
1 | CC(C)(C)OC(=O)NCCCCNC1CCC2(CC1)OOC1(O2)C2CC3CC(C2)CC1C3 (stereo not drawn) [MIS14] | 8439.9 | 7399.1 | 847.2 | 798.8 | 0.3 | > 1 | 25575.4 | 22421.5 | 2567.4 | 2420.7 | 413 ± 20.2 | 390 ± 17.8 | – | – | – | – | – | – | – | – | decrease in HepG2 survival ([1]; maximum dose of 1 mM): ~30%; Resistance Index RIa = IC50 (Dd2)/IC50 (3D7) [4]: 1.1
2 | O=S1(=O)N=C(OCC2CCC3(CC2)OOC2(O3)C3CC4CC(C3)CC2C4)c2ccccc21 (stereo not drawn) [LC129] | 23310.0 | 23148.1 | 29673.5 | 27502.7 | 1.0 | > 1 | 23310.0 | 23148.1 | 29673.5 | 27502.7 | 36.4 ± 0.6 | 29.3 ± 0.7 | 0.85 | 87.6 | 50.7 | 76.7 | 0.19 ± 0.12 | 1.76 ± 1.36 | 1.32 ± 1.24 | 0.79 | in vivo outcome against P. berghei in words (Plasmodium berghei NK65): failed to completely suppress it
3 | C1C2CC3CC1CC(C2)C31OOC2(CCC(Nc3nnn[nH]3)CC2)O1 (stereo not drawn) [LC136] | 357142.8 | 400000.0 | 147058.8 | 163934.4 | 1.0 | > 1 | 357142.8 | 400000.0 | 147058.8 | 163934.4 | 6.1 ± 1.9 | 6.8 ± 2.3 | 2.18 | 100 | 100 | 100 | 0 | 0 | 0 | 2.43 | in vivo outcome against P. berghei in words (Plasmodium berghei NK65): complete suppression of parasitaemia; also recorded: total suppression of parasitaemia from day 5 to day 10; also recorded: totally suppressed P. berghei parasitaemia
4 | O=S1(=O)N=C(NCC2CCC3(CC2)OOC2(O3)C3CC4CC(C3)CC2C4)c2ccccc21 (stereo not drawn) [LC130] | 42918.4 | 40322.6 | 416666.6 | 121951.2 | 1.0 | > 1 | 42918.4 | 40322.6 | 416666.6 | 121951.2 | 8.2 ± 1.9 | 2.4 ± 1.6 | 0.35 | 100 | 60.8 | 76.7 | 0 | 1.4 ± 0.94 | 1.32 ± 0.24 | 0.10 | in vivo outcome against P. berghei in words (Plasmodium berghei NK65): recrudescence occurred on day 7; mice parasitemic, day 7 (Plasmodium berghei NK65; groups of five mice, 50 mg/kg/day oral, day 7): 2/5
5 | CCCCNC(=O)C1CCC2(CC1)OOC1(O2)C2CC3CC(C2)CC1C3 (stereo not drawn) [LC92] | 37453.1 | 44247.8 | 28653.3 | 26525.2 | 1.0 | > 1 | 37453.1 | 44247.8 | 28653.3 | 26525.2 | 37.7 ± 9.9 | 34.9 ± 7.9 | 1.41 | 98.3 | 87 | 86.3 | 0.02 ± 0.05 | 0.46 ± 0.60 | 0.77 ± 0.26 | 1.31 | mice presenting parasitaemia, day 5 (Plasmodium berghei NK65; groups of five mice, 50 mg/kg/day oral, day 5): 5
6 | Cn1nnc(NCC2CCC3(CC2)OOC2(O3)C3CC4CC(C3)CC2C4)n1 (stereo not drawn) [LC131] | 344827.5 | 476190.5 | 208333.3 | 294117.6 | 1.0 | > 1 | 344827.5 | 476190.5 | 208333.3 | 294117.6 | 3.4 ± 2.1 | 4.8 ± 1.2 | 1.17 | 100 | 100 | 100 | 0 | 0 | 0 | 1.66 | in vivo outcome against P. berghei in words (Plasmodium berghei NK65): complete suppression of parasitaemia; also recorded: total suppression of parasitaemia from day 5 to day 10; also recorded: totally suppressed P. berghei parasitaemia
